In the supplement of paper PMC10307832:

Assays:
Test in all cases: relative viability (nuclei count vs DMSO), 5 days (fraction); higher = more cells survive
[1] = system: RERF-LC-KJ
Procedure, shortened: (§1)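 Relative viability was taken as the ratio of nuclei in treated wells to nuclei in vehicle wells. Lung cancer cell lines in 1536-well plates received compounds by pin tool one day after seeding, either one drug alone or a fixed anchor-drug dose plus five library-drug doses (not always all listed) in √10 steps. Nuclei were counted on 4× images after 5 days of treatment, and values are medians of duplicate plates.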

[2] = system: CAL-12T
Procedure, shortened: as §1

[3] = system: NCI-H2405
Procedure, shortened: as §1

[4] = system: LXF-289
Procedure, shortened: as §1

[5] = system: HCC-827
Procedure, shortened: as §1

[6] = system: NCI-H2228
Procedure, shortened: as §1

[7] = system: NCI-H647
Procedure, shortened: as §1

[8] = system: NCI-H1395
Procedure, shortened: as §1

[9] = system: NCI-H322M
Procedure, shortened: as §1

[10] = system: HOP-62
Procedure, shortened: as §1

[11] = system: HCC-44
Procedure, shortened: as §1

[12] = system: NCI-H1793
Procedure, shortened: as §1

[13] = system: NCI-H1944
Procedure, shortened: as §1

[14] = system: LCLC-97TM1
Procedure, shortened: as §1

[15] = system: NCI-H3122
Procedure, shortened: as §1

[16] = system: NCI-H2087
Procedure, shortened: as §1

[17] = system: LCLC-103H
Procedure, shortened: as §1

[18] = system: NCI-H1437
Procedure, shortened: as §1

[19] = system: SK-LU-1
Procedure, shortened: as §1

[20] = system: 201T
Procedure, shortened: as §1

[21] = system: BEN
Procedure, shortened: as §1

[22] = system: NCI-H727
Procedure, shortened: as §1

## O=C(O)c1ccc(-c2c[nH]c3ncc(-c4ccccc4)cc23)cc1C1CCCC1 + C[C@]1(O)C[C@@H](c2nc(-c3ccc4ccc(-c5ccccc5)nc4c3)c3c(N)nccn32)C1 [Linsitinib] (partner 1 µM)
[1]; first compound 0.04 µM
  relative viability: 0.86
[1]; first compound 0.1265 µM
  relative viability: 0.862
[1]; first compound 0.4 µM
  relative viability: 0.906
[1]; first compound 1.265 µM
  relative viability: 0.807
[2]; first compound 0.04 µM
  relative viability: 0.799
[2]; first compound 0.1265 µM
  relative viability: 0.834
[2]; first compound 0.4 µM
  relative viability: 0.963
[2]; first compound 1.265 µM
  relative viability: 0.6
[3]; first compound 0.04 µM
  relative viability: 0.916
[3]; first compound 0.1265 µM
  relative viability: 0.932
[3]; first compound 0.4 µM
  relative viability: 0.908
[3]; first compound 1.265 µM
  relative viability: 0.603
[4]; first compound 0.04 µM
  relative viability: 0.94
[4]; first compound 0.1265 µM
  relative viability: 0.937
[4]; first compound 0.4 µM
  relative viability: 0.706
[4]; first compound 1.265 µM
  relative viability: 0.322
[5]; first compound 0.04 µM
  relative viability: 0.966
[5]; first compound 0.1265 µM
  relative viability: 0.976
[5]; first compound 0.4 µM
  relative viability: 0.884
[5]; first compound 1.265 µM
  relative viability: 0.702
[6]; first compound 0.04 µM
  relative viability: 0.726
[6]; first compound 0.1265 µM
  relative viability: 0.729
[6]; first compound 0.4 µM
  relative viability: 0.813
[6]; first compound 1.265 µM
  relative viability: 0.589
[7]; first compound 0.04 µM
  relative viability: 1.18
[7]; first compound 0.1265 µM
  relative viability: 1.18
[7]; first compound 0.4 µM
  relative viability: 1.02
[7]; first compound 1.265 µM
  relative viability: 1.03
[8]; first compound 0.04 µM
  relative viability: 1.11
[8]; first compound 0.1265 µM
  relative viability: 1.06
[8]; first compound 0.4 µM
  relative viability: 1.08
[8]; first compound 1.265 µM
  relative viability: 0.796
[9]; first compound 0.04 µM
  relative viability: 0.913
[9]; first compound 0.1265 µM
  relative viability: 0.911
[9]; first compound 0.4 µM
  relative viability: 0.92
[9]; first compound 1.265 µM
  relative viability: 0.791
[10]; first compound 0.04 µM
  relative viability: 1.1
[10]; first compound 0.1265 µM
  relative viability: 1.03
[10]; first compound 0.4 µM
  relative viability: 1.04
[10]; first compound 1.265 µM
  relative viability: 0.794
[11]; first compound 0.04 µM
  relative viability: 0.664
[11]; first compound 0.1265 µM
  relative viability: 0.636
[11]; first compound 0.4 µM
  relative viability: 0.515
[11]; first compound 1.265 µM
  relative viability: 0.57
[12]; first compound 0.04 µM
  relative viability: 0.909
[12]; first compound 0.1265 µM
  relative viability: 0.986
[12]; first compound 0.4 µM
  relative viability: 1.09
[12]; first compound 1.265 µM
  relative viability: 0.889
[13]; first compound 0.04 µM
  relative viability: 1.18
[13]; first compound 0.1265 µM
  relative viability: 1.39
[13]; first compound 0.4 µM
  relative viability: 1.04
[13]; first compound 1.265 µM
  relative viability: 1.02
[14]; first compound 0.04 µM
  relative viability: 0.204
[14]; first compound 0.1265 µM
  relative viability: 0.218
[14]; first compound 0.4 µM
  relative viability: 0.175
[14]; first compound 1.265 µM
  relative viability: 0.166
[15]; first compound 0.04 µM
  relative viability: 0.966
[15]; first compound 0.1265 µM
  relative viability: 1.02
[15]; first compound 0.4 µM
  relative viability: 0.942
[15]; first compound 1.265 µM
  relative viability: 0.838
[16]; first compound 0.04 µM
  relative viability: 0.959
[16]; first compound 0.1265 µM
  relative viability: 1.03
[16]; first compound 0.4 µM
  relative viability: 0.97
[16]; first compound 1.265 µM
  relative viability: 0.859
[17]; first compound 0.04 µM
  relative viability: 1.04
[17]; first compound 0.1265 µM
  relative viability: 1.04
[17]; first compound 0.4 µM
  relative viability: 1.17
[17]; first compound 1.265 µM
  relative viability: 1.08
[18]; first compound 0.04 µM
  relative viability: 1.03
[18]; first compound 0.1265 µM
  relative viability: 1.09
[18]; first compound 0.4 µM
  relative viability: 0.969
[18]; first compound 1.265 µM
  relative viability: 0.55
[19]; first compound 0.04 µM
  relative viability: 1.06
[19]; first compound 0.1265 µM
  relative viability: 1
[19]; first compound 0.4 µM
  relative viability: 0.943
[19]; first compound 1.265 µM
  relative viability: 0.851
[20]; first compound 0.04 µM
  relative viability: 1.07
[20]; first compound 0.1265 µM
  relative viability: 1.06
[20]; first compound 0.4 µM
  relative viability: 0.979
[20]; first compound 1.265 µM
  relative viability: 0.946
[21]; first compound 0.04 µM
  relative viability: 1.03
[21]; first compound 0.1265 µM
  relative viability: 1.03
[21]; first compound 0.4 µM
  relative viability: 0.931
[21]; first compound 1.265 µM
  relative viability: 0.859
[22]; first compound 0.04 µM
  relative viability: 0.381
[22]; first compound 0.1265 µM
  relative viability: 0.361
[22]; first compound 0.4 µM
  relative viability: 0.243
[22]; first compound 1.265 µM
  relative viability: 0.294
